According to PMC8595612, “Hydrogen peroxide signaling via its transformation to a stereospecific alkyl hydroperoxide that escapes reductive inactivation” (Nature Communications, 2021):

T1: Prx4 (Homo sapiens, UniProt Q13162)
T1 construct: gene PRDX4; His-tagged wild type human Prx4
T1 sequence (Q13162 38-271): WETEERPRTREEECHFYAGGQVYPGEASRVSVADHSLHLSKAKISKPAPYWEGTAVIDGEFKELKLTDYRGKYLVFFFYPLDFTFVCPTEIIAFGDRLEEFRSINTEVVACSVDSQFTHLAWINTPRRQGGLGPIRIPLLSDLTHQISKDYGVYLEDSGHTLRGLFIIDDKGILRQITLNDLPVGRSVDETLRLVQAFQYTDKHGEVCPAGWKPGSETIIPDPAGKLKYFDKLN

T2: PKG1α (Homo sapiens, UniProt Q13976)
T2 construct: gene PRKG1; purified recombinant PKG1α, His-tag cleaved
T2 sequence (Q13976 2-671): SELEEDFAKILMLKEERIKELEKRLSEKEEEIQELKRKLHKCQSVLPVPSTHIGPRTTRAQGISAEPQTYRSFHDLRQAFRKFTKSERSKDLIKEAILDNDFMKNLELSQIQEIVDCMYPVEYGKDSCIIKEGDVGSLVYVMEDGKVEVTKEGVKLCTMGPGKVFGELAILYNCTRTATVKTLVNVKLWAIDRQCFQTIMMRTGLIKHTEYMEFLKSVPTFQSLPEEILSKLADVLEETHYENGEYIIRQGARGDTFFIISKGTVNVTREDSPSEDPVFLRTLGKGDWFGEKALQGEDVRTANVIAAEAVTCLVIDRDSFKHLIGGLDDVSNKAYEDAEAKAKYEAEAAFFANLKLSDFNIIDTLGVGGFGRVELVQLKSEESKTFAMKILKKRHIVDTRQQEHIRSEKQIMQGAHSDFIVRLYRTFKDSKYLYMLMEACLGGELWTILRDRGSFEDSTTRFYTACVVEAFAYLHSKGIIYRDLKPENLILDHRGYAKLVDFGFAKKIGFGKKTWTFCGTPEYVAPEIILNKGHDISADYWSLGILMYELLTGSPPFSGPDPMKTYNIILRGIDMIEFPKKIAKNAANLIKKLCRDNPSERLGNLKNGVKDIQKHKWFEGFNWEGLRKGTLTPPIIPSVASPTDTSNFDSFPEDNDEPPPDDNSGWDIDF

T3: GPx4 (Rattus norvegicus, UniProt P36970)
T3 construct: GPx4 isolated from rat testis mitochondria
T3 sequence (P36970 28-197): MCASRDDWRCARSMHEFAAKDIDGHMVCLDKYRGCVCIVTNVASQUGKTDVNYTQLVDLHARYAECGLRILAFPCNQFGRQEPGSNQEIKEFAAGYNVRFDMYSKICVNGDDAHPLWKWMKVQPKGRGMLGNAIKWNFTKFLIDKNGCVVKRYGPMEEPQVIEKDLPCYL


What was measured:
Prx4 = molecular target: T1, Prx4; assay: redox blotting, estimated rate constant at […] °C; assay type: biochemical
PKG1α = molecular target: T2, PKG1α; assay: oxidative dimerization of purified PKG1α, non-reducing SDS-PAGE; assay type: biochemical
GPx4 = molecular target: T3, GPx4; assay: coupled NADPH oxidation assay, apparent second-order rate constant; assay type: biochemical
[1] = molecular target: the molecule itself; assay: non-reducing SDS-PAGE (disulfide-linked dimer, redox blotting); purified pre-reduced Prx (20 uM) incubated with cis-WOOH, trans-WOOH (1-20 uM) or H2O2 (2.5-20 uM) for 10 s at 5 °C in 50 mM sodium phosphate pH 7.4 with 100 uM DTPA; NEM 50 mM; non-reducing 4-12% SDS-PAGE, silver stain; monomer and dimer bands
[2] = molecular target: the molecule itself; assay: non-reducing SDS-PAGE (disulfide-linked dimer); purified PKG1α (3.3 uM) with 200 uM cis-WOOH or H2O2, 5 min, 25 °C, 25 mM phosphate pH 7.0, 200 uM TCEP; stopped with 125 mM maleimide; non-reducing 4-12% SDS-PAGE, silver stain

| Molecule | redox blotting, estimated rate constant at 5 °C (Prx4) | coupled NADPH oxidation assay, apparent second-order rate constant (GPx4) | binding result [1] | other results |
| --- | --- | --- | --- | --- |
| O=C(O)[C@@H]1C[C@@]2(OO)c3ccccc3N[C@H]2N1 [cis-WOOH] | ~ 10^3 M^−1 s^−1 | 1e+06 M⁻¹ s⁻¹ |  | oxidative dimerization of purified PKG1α, non-reducing SDS-PAGE (PKG1α): cis-WOOH caused greater PKG1α dimerization than the same concentrations of H2O2 |
| O=C(O)[C@@H]1C[C@]2(OO)c3ccccc3N[C@@H]2N1 [trans-WOOH] | ~ 10^3 M^−1 s^−1 | 1.6e+06 M⁻¹ s⁻¹ |  |  |
| His-tagged wild type human Prx2 (peroxiredoxin 2) (enzyme, UniProt P32119 1-198, looked up, human peroxiredoxin 2 (Prx2), wild type; also called His-tagged Prx2; pre-reduced His-tagged Prx2; source: E. coli BL21 (DE3), pET-28a, purified (Ni-NTA)) MASGNARIGKPAPDFKATAVVDGAFKEVKLSDYKGKYVVLFFYPLDFTFVCPTEIIAFSNRAEDFRKLGCEVLGVSVDSQFTHLAWINTPRKEGGLGPLNIPLLADVTRRLSEDYGVLKTDEGIAYRGLFIIDGKGVLRQITVNDLPVGRSVDEALRLVQAFQYTDEHGEVCPAGWKPGSDTIKPNVDDSKEYFSKHN |  |  | binds |  |
| untagged human Prx2 (His-tag cleaved with Factor Xa) (enzyme, UniProt P32119 1-198, looked up, human peroxiredoxin 2 (Prx2), wild type; also called untagged Prx2; source: E. coli BL21 (DE3), pET-28a, purified (Ni-NTA), tag cleaved with Factor Xa) MASGNARIGKPAPDFKATAVVDGAFKEVKLSDYKGKYVVLFFYPLDFTFVCPTEIIAFSNRAEDFRKLGCEVLGVSVDSQFTHLAWINTPRKEGGLGPLNIPLLADVTRRLSEDYGVLKTDEGIAYRGLFIIDGKGVLRQITVNDLPVGRSVDEALRLVQAFQYTDEHGEVCPAGWKPGSDTIKPNVDDSKEYFSKHN |  |  | binds |  |
| purified recombinant human protein kinase G 1α (PKG1α) (enzyme, UniProt Q13976 1-671, looked up, human cGMP-dependent protein kinase 1, isoform alpha (PKG1α); also called PK1α; source: FreeStyle 293-F cells, transfected, purified (Ni-NTA, HiTrap Q), His-tag cleaved with TEV protease) MSELEEDFAKILMLKEERIKELEKRLSEKEEEIQELKRKLHKCQSVLPVPSTHIGPRTTRAQGISAEPQTYRSFHDLRQAFRKFTKSERSKDLIKEAILDNDFMKNLELSQIQEIVDCMYPVEYGKDSCIIKEGDVGSLVYVMEDGKVEVTKEGVKLCTMGPGKVFGELAILYNCTRTATVKTLVNVKLWAIDRQCFQTIMMRTGLIKHTEYMEFLKSVPTFQSLPEEILSKLADVLEETHYENGEYIIRQGARGDTFFIISKGTVNVTREDSPSEDPVFLRTLGKGDWFGEKALQGEDVRTANVIAAEAVTCLVIDRDSFKHLIGGLDDVSNKAYEDAEAKAKYEAEAAFFANLKLSDFNIIDTLGVGGFGRVELVQLKSEESKTFAMKILKKRHIVDTRQQEHIRSEKQIMQGAHSDFIVRLYRTFKDSKYLYMLMEACLGGELWTILRDRGSFEDSTTRFYTACVVEAFAYLHSKGIIYRDLKPENLILDHRGYAKLVDFGFAKKIGFGKKTWTFCGTPEYVAPEIILNKGHDISADYWSLGILMYELLTGSPPFSGPDPMKTYNIILRGIDMIEFPKKIAKNAANLIKKLCRDNPSERLGNLKNGVKDIQKHKWFEGFNWEGLRKGTLTPPIIPSVASPTDTSNFDSFPEDNDEPPPDDNSGWDIDF |  |  |  | binding result [2]: binds |
